According to patent US12209102B2, “Heterocyclic compounds and uses thereof” (Kumquat Biosciences Inc., priority 2022, dated 2025):

Assays:
K-Ras G12V = molecular target: T1, K-Ras G12V (Homo sapiens, UniProt P01116, G12V); test: HTRF resonance energy transfer assay, K-Ras G12V / SOS1 interaction; type: biochemical; conditions: HTRF assay of Example 5; read-out: IC50 against K-Ras G12V
T1 construct: made in house; host or cells: E. coli BL21 (DE3)
Procedure, shortened: (§1)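 Buffer about 5 mM HEPES pH 7.4 with ~150 mM NaCl, ~1 mM DTT, 0.05% BSA, 0.0025% (v/v) Igepal. Protein constructs used at molarity matching the IC50 range studied (e.g. ~500 nM). FRET between tagged K-Ras and hSOS1 measured after short incubation.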

SW620 cells = test: Ras cellular assay, growth of cells with K-Ras G12V mutation (CellTiter-Glo); type: cell-based; conditions: Homo sapiens, SW-620; cell growth, Example 9, G12V mutation; read-out: IC50 against SW620 cells
Procedure, shortened: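 IC50 values came from a four-parameter fit of CellTiter-Glo viability, read roughly 6 days after dosing with e.g. a 10-point threefold dilution series. G12V-mutant SW620 cells (e.g. 800 per well) had been plated the previous day in RPMI-1640/10% heat-inactivated FBS, on tissue culture-treated or ultra-low attachment plates.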

K-Ras G12S = molecular target: T2, K-Ras G12S (Homo sapiens, UniProt P01116, G12S); test: HTRF resonance energy transfer assay, K-Ras G12S / SOS1 interaction; type: biochemical; conditions: HTRF assay of Example 5; read-out: IC50 against K-Ras G12S
T2 construct: made in house; host or cells: E. coli BL21 (DE3)
T2 sequence (P01116 1-188 isoform P01116-2 G12S): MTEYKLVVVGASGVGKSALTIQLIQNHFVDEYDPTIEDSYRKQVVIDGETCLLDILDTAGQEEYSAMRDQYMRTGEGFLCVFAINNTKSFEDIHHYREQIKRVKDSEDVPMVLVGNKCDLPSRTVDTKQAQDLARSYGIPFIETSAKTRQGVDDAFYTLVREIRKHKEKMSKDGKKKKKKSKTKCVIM
Procedure, shortened: as §1

K-Ras G12D = molecular target: T3, K-Ras G12D (Homo sapiens, UniProt P01116, G12D); test: HTRF resonance energy transfer assay, K-Ras G12D / SOS1 interaction; type: biochemical; conditions: HTRF assay of Example 5; read-out: IC50 against K-Ras G12D
T3 construct: made in house; host or cells: E. coli BL21 (DE3)
T3 sequence (P01116 1-188 isoform P01116-2 G12D): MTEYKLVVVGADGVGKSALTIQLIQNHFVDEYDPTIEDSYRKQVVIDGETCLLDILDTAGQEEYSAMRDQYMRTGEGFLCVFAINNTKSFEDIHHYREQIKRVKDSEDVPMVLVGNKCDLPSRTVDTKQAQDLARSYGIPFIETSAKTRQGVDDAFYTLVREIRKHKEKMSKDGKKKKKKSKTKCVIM
Procedure, shortened: as §1

A549 cells = test: Ras cellular assay, growth of cells with K-Ras G12S mutation (CellTiter-Glo); type: cell-based; conditions: Homo sapiens, cell growth, Example 9, G12S mutation, read-out: IC50 against A549 cells
Procedure, shortened: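 Growth inhibition IC50 values come from four-parameter fits of CellTiter-Glo luminescence, read about 6 days after compound addition. G12S-mutant A549 cells (e.g. 800/well, RPMI-1640 + 10% heat-inactivated FBS) were plated in tissue-culture-treated or ultra-low-attachment 384-well format. Dosing began the following day with serial dilutions, e.g. 10 points, 3-fold.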

K-Ras WT = molecular target: T4, K-Ras WT (Homo sapiens, UniProt P01116); test: HTRF resonance energy transfer assay, K-Ras WT / SOS1 interaction; type: biochemical; conditions: HTRF assay of Example 5; read-out: IC50 against K-Ras WT
T4 construct: made in house; host or cells: E. coli BL21 (DE3)
T4 sequence (P01116 1-188 isoform P01116-2): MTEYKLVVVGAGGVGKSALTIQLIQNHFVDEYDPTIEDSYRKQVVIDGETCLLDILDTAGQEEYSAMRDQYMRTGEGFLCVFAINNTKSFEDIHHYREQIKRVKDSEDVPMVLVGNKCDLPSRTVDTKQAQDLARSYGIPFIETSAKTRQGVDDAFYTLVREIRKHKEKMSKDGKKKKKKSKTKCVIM
Procedure, shortened: as §1

T1 sequence (P01116 1-188 isoform P01116-2 G12V): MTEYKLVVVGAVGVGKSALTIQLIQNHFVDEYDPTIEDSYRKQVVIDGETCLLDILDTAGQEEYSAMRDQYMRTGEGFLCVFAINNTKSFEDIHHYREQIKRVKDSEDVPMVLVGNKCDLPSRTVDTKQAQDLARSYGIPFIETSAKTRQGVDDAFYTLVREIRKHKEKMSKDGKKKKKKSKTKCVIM

| Compound | IC50 (K-Ras G12V) [µM] | IC50 (SW620 cells) [µM] | IC50 (K-Ras G12S) [µM] | IC50 (K-Ras G12D) [µM] | IC50 (A549 cells) [µM] | IC50 (K-Ras WT) [µM] |
| --- | --- | --- | --- | --- | --- | --- |
| CC1Oc2c(Cl)c(-c3ccc(F)c4sc(N)c(C#N)c34)c(F)c3nc(OC[C@@]45CCCN4C[C@H](F)C5)nc(c23)N(CC(F)F)C1C(C)(C)O (stereo partly drawn) [Compound 655, 2-amino-4-(8-chloro-4-(2,2-difluoroethyl)-10-fluoro-2-(((2R,7aS)-2-fluorotetrahydro-1H-pyrrolizin-7a(5H)-yl)methoxy)-5-(2-hydroxypropan-2-yl)-6-methyl-5,6-dihydro-4H-[1,4]oxazepino[5,6,7-de]quinazolin-9-yl)-7-fluorobenzo[b]thiophene-3-carbonitrile] | < 0.1 | < 5 | < 0.1 | < 0.1 | < 5 | < 0.1 |
| COC1CCCC1N1CCOc2c(Cl)c(-c3ccc(F)c4sc(N)c(C#N)c34)c(F)c3nc(OC[C@@]45CCCN4C[C@H](F)C5)nc1c23 (stereo partly drawn) [Compound 657, 2-amino-4-(8-chloro-10-fluoro-2-(((2R,7aS)-2-fluorotetrahydro-1H-pyrrolizin-7a(5H)-yl)methoxy)-4-(2-methoxycyclopentyl)-5,6-dihydro-4H-[1,4]oxazepino[5,6,7-de]quinazolin-9-yl)-7-fluorobenzo[b]thiophene-3-carbonitrile] | < 0.1 | < 5 | < 0.1 | < 0.1 | < 5 | < 0.1 |
| CC(O)CC1COc2c(Cl)c(-c3ccc(F)c4sc(N)c(C#N)c34)c(F)c3nc(OC[C@@]45CCCN4C[C@H](F)C5)nc(c23)N1CC(F)F (stereo partly drawn) [Compound 659, 2-amino-4-(8-chloro-4-(2,2-difluoroethyl)-10-fluoro-2-(((2R,7aS)-2-fluorotetrahydro-1H-pyrrolizin-7a(5H)-yl)methoxy)-5-(2-hydroxypropyl)-5,6-dihydro-4H-[1,4]oxazepino[5,6,7-de]quinazolin-9-yl)-7-fluorobenzo[b]thiophene-3-carbonitrile] | < 0.1 | < 5 | < 0.1 | < 0.1 | < 5 | < 0.1 |
| COC1CC(N2CCOc3c(Cl)c(-c4ccc(F)c5sc(N)c(C#N)c45)c(F)c4nc(OC[C@@]56CCCN5C[C@H](F)C6)nc2c34)C1 (stereo partly drawn) [Compound 660, 2-amino-4-(8-chloro-10-fluoro-2-(((2R,7aS)-2-fluorotetrahydro-1H-pyrrolizin-7a(5H)-yl)methoxy)-4-(3-methoxycyclobutyl)-5,6-dihydro-4H-[1,4]oxazepino[5,6,7-de]quinazolin-9-yl)-7-fluorobenzo[b]thiophene-3-carbonitrile] | < 0.1 | < 5 | < 0.1 | < 0.1 | < 5 | < 0.1 |
| N#Cc1c(N)sc2c(F)ccc(-c3c(Cl)c4c5c(nc(OC[C@@]67CCCN6C[C@H](F)C7)nc5c3F)N(C3CCC(NC(=O)C(F)F)C3)CCO4)c12 (stereo partly drawn) [Compound 673, N-(3-(9-(2-amino-3-cyano-7-fluorobenzo[b]thiophen-4-yl)-8-chloro-10-fluoro-2-(((2R,7aS)-2-fluorotetrahydro-1H-pyrrolizin-7a(5H)-yl)methoxy)-5,6-dihydro-4H-[1,4]oxazepino[5,6,7-de]quinazolin-4-yl)cyclopentyl)-2,2-difluoroacetamide] | < 0.1 | < 5 | < 0.1 | < 0.1 | < 5 | < 0.1 |
| N#Cc1c(N)sc2c(F)ccc(-c3c(Cl)c4c5c(nc(OC[C@@]67CCCN6C[C@H](F)C7)nc5c3F)N(C3CCC(C#N)C3)CCO4)c12 (stereo partly drawn) [Compound 684, 2-amino-4-(8-chloro-4-(3-cyanocyclopentyl)-10-fluoro-2-(((2R,7aS)-2-fluorotetrahydro-1H-pyrrolizin-7a(5H)-yl)methoxy)-5,6-dihydro-4H-[1,4]oxazepino[5,6,7-de]quinazolin-9-yl)-7-fluorobenzo[b]thiophene-3-carbonitrile] | < 0.1 | < 5 | < 0.1 | < 0.1 | < 5 | < 0.1 |
| N#Cc1c(N)sc2c(F)ccc(-c3c(Cl)c4c5c(nc(OC[C@@]67CCCN6C[C@H](F)C7)nc5c3F)N(C3CCN(CC(F)F)C3)CCO4)c12 (stereo partly drawn) [Compound 693, 2-amino-4-(8-chloro-4-(1-(2,2-difluoroethyl)pyrrolidin-3-yl)-10-fluoro-2-(((2R,7aS)-2-fluorotetrahydro-1H-pyrrolizin-7a(5H)-yl)methoxy)-5,6-dihydro-4H-[1,4]oxazepino[5,6,7-de]quinazolin-9-yl)-7-fluorobenzo[b]thiophene-3-carbonitrile] | < 0.1 | < 5 | < 0.1 | < 0.1 | < 5 | < 0.1 |
| N#Cc1c(N)sc2c(F)ccc(-c3c(Cl)c4c5c(nc(OC[C@@]67CCCN6C[C@H](F)C7)nc5c3F)N(C3CCN(C(=O)C5CC5C#N)CC3)CCO4)c12 (stereo partly drawn) [Compound 703, 2-amino-4-(8-chloro-4-(1-(2-cyanocyclopropane-1-carbonyl)piperidin-4-yl)-10-fluoro-2-(((2R,7aS)-2-fluorotetrahydro-1H-pyrrolizin-7a(5H)-yl)methoxy)-5,6-dihydro-4H-[1,4]oxazepino[5,6,7-de]quinazolin-9-yl)-7-fluorobenzo[b]thiophene-3-carbonitrile] | < 0.1 | < 5 | < 0.1 | < 0.1 | < 5 | < 0.1 |
| CC1(O)CC(N2CCOc3c(Cl)c(-c4ccc(F)c5sc(N)c(C#N)c45)c(F)c4nc(OC[C@@]56CCCN5C[C@H](F)C6)nc2c34)C1 (stereo partly drawn) [Compound 708, 2-amino-4-(8-chloro-10-fluoro-2-(((2R,7aS)-2-fluorotetrahydro-1H-pyrrolizin-7a(5H)-yl)methoxy)-4-(3-hydroxy-3-methylcyclobutyl)-5,6-dihydro-4H-[1,4]oxazepino[5,6,7-de]quinazolin-9-yl)-7-fluorobenzo[b]thiophene-3-carbonitrile] | < 0.1 | < 5 | < 0.1 | < 0.1 | < 5 | < 0.1 |
| N#Cc1c(N)sc2c(F)ccc(-c3c(Cl)c4c5c(nc(OC[C@@]67CCCN6C[C@H](F)C7)nc5c3F)N(C3CC5CCC3N5)CCO4)c12 (stereo partly drawn) [Compound 733, 4-(4-(7-azabicyclo[2.2.1]heptan-2-yl)-8-chloro-10-fluoro-2-(((2R,7aS)-2-fluorotetrahydro-1H-pyrrolizin-7a(5H)-yl)methoxy)-5,6-dihydro-4H-[1,4]oxazepino[5,6,7-de]quinazolin-9-yl)-2-amino-7-fluorobenzo[b]thiophene-3-carbonitrile] | < 0.1 | < 5 | < 0.1 | < 0.1 | < 5 | < 0.1 |
| N#Cc1c(N)sc2c(F)ccc(-c3c(Cl)c4c5c(nc(OC[C@@]67CCCN6C[C@H](F)C7)nc5c3F)N(C3CC(N)C3)CCO4)c12 (stereo partly drawn) [Compound 734, 2-amino-4-(4-(3-aminocyclobutyl)-8-chloro-10-fluoro-2-(((2R,7aS)-2-fluorotetrahydro-1H-pyrrolizin-7a(5H)-yl)methoxy)-5,6-dihydro-4H-[1,4]oxazepino[5,6,7-de]quinazolin-9-yl)-7-fluorobenzo[b]thiophene-3-carbonitrile] | < 0.1 | < 5 | < 0.1 | < 0.1 | < 5 | < 0.1 |
| CC1Oc2c(Cl)c(-c3ccc(F)c4sc(N)c(C#N)c34)c(F)c3nc(OC[C@@]45CCCN4C[C@H](F)C5)nc(c23)N([C@@H]2CCOC2)C1C (stereo partly drawn) [Compound 741, 2-amino-4-(8-chloro-10-fluoro-2-(((2R,7aS)-2-fluorotetrahydro-1H-pyrrolizin-7a(5H)-yl)methoxy)-5,6-dimethyl-4-((R)-tetrahydrofuran-3-yl)-5,6-dihydro-4H-[1,4]oxazepino[5,6,7-de]quinazolin-9-yl)-7-fluorobenzo[b]thiophene-3-carbonitrile] | < 0.1 | < 5 | < 0.1 | < 0.1 | < 5 | < 0.1 |
| N#Cc1c(N)sc2c(F)ccc(-c3c(Cl)c4c5c(nc(OC[C@@]67CCCN6C[C@H](F)C7)nc5c3F)N(C3CCC5(C3)CN(C(=O)C3CC3(F)F)C5)CCO4)c12 (stereo partly drawn) [Compound 746, 2-amino-4-(8-chloro-4-(2-(2,2-difluorocyclopropane-1-carbonyl)-2-azaspiro[3.4]octan-6-yl)-10-fluoro-2-(((2R,7aS)-2-fluorotetrahydro-1H-pyrrolizin-7a(5H)-yl)methoxy)-5,6-dihydro-4H-[1,4]oxazepino[5,6,7-de]quinazolin-9-yl)-7-fluorobenzo[b]thiophene-3-carbonitrile] | < 0.1 | < 5 | < 0.1 | < 0.1 | < 5 | < 0.1 |
